Experiments:
Details in all cases: 72 h
[1] = tested on: HepG2; test: relative viability EC50 (midpoint between 100% and the lowest measured viability); higher = less toxic
[2] = tested on: Caco-2; test: as above
[3] = tested on: Vero E6; test: as above
[4] = tested on: U2OS; test: as above
[5] = tested on: Calu-3; test: as above
[6] = tested on: HepG2; test: drug sensitivity score (DSS) for viability; higher = more toxic; extreme values may be limits of the assay
[7] = tested on: Caco-2; test: as above
[8] = tested on: Vero E6; test: as above
[9] = tested on: U2OS; test: as above
[10] = tested on: Calu-3; test: as above
[11] = tested on: HepG2; test: cell viability relative to DMSO; higher = less toxic
[12] = tested on: Caco-2; test: as above
[13] = tested on: Vero E6; test: as above
[14] = tested on: U2OS; test: as above
[15] = tested on: Calu-3; test: as above

| SMILES | relative viability EC50 [1] | relative viability EC50 [2] | relative viability EC50 [3] | relative viability EC50 [4] | relative viability EC50 [5] | drug sensitivity score [6] | drug sensitivity score [7] | drug sensitivity score [8] | drug sensitivity score [9] | drug sensitivity score [10] | cell viability ([11]; 1 nM) | cell viability ([11]; 10 nM) | cell viability ([11]; 100 nM) | cell viability ([11]; 1000 nM) | cell viability ([11]; 10000 nM) | cell viability ([12]; 1 nM) | cell viability ([12]; 10 nM) | cell viability ([12]; 100 nM) | cell viability ([12]; 1000 nM) | cell viability ([12]; 10000 nM) | cell viability ([13]; 1 nM) | cell viability ([13]; 10 nM) | cell viability ([13]; 100 nM) | cell viability ([13]; 1000 nM) | cell viability ([13]; 10000 nM) | cell viability ([14]; 1 nM) | cell viability ([14]; 10 nM) | cell viability ([14]; 100 nM) | cell viability ([14]; 1000 nM) | cell viability ([14]; 10000 nM) | cell viability ([15]; 1 nM) | cell viability ([15]; 10 nM) | cell viability ([15]; 100 nM) | cell viability ([15]; 1000 nM) | cell viability ([15]; 10000 nM) |
| --- | --- | --- | --- | --- | --- | --- | --- | --- | --- | --- | --- | --- | --- | --- | --- | --- | --- | --- | --- | --- | --- | --- | --- | --- | --- | --- | --- | --- | --- | --- | --- | --- | --- | --- | --- |
| COc1ccc2c(OCc3nnc4ccc(-c5ccccc5)nn34)ccnc2c1 [AMG-208] | > 10 µM | > 10 µM | > 10 µM | > 10 µM | > 10 µM | 0 | 0 | 0 | 0 | 0 | 99.4% | 99.9% | 101% | 97% | 104% | 99.8% | 95.9% | 104% | 100% | 91% | 95.6% | 92.1% | 93.9% | 104% | 91.2% | 104% | 95.5% | 102% | 103% | 99% | 108% | 99.8% | 97.3% | 92.2% | 97% |
| Cc1ccc(NC2=CC(=O)c3sc(C)nc3C2=O)cc1 [ryuvidine] | 3.02 µM | 1.64 µM | 2.84 µM | 3.12 µM | 3.29 µM | 5.3 | 9 | 5.2 | 5.7 | 5.2 | 95.4% | 106% | 97.9% | 98.1% | 8.5% | 94.2% | 91.8% | 92.7% | 77.9% | 0.9% | 100% | 97.7% | 97.4% | 96.4% | 16.2% | 102% | 97.3% | 104% | 99.3% | 0% | 115% | 95.8% | 109% | 102% | 2.7% |
| COc1ccc(N2CCOCC2)c2sc(NC(=O)N3CCC(C)(O)CC3)nc12 [tozadenant] | > 10 µM | > 10 µM | > 10 µM | > 10 µM | > 10 µM | 0 | 0 | 0 | 0 | 0 | 85.8% | 99.4% | 109% | 99.7% | 98.2% | 90.8% | 95.5% | 110% | 96.1% | 98% | 94.5% | 106% | 90.6% | 94.3% | 101% | 103% | 95.7% | 102% | 98.9% | 103% | 87.7% | 94.1% | 87.3% | 101% | 97.4% |
| CCCCC/C=C\C/C=C\C/C=C\C/C=C\CCCC(=O)Nc1ccc(O)cc1 [AM-404] | > 10 µM | > 10 µM | > 10 µM | > 10 µM | > 10 µM | 0 | 0 | 0 | 0 | 0 | 110% | 104% | 93.9% | 107% | 87.6% | 95.3% | 98.2% | 103% | 100% | 95% | 105% | 106% | 92.9% | 102% | 96.5% | 96.9% | 95.2% | 100% | 93.8% | 96.3% | 104% | 93.1% | 96.8% | 99.1% | 102% |
| Nc1nc(N)nc(NC2CC2)n1 [cyromazine] | > 10 µM | > 10 µM | > 10 µM | > 10 µM | > 10 µM | 0 | 0 | 0 | 0 | 0 | 96.3% | 105% | 99.8% | 95% | 104% | 99.6% | 99.8% | 108% | 95.3% | 96.1% | 92.8% | 98.2% | 93% | 99.1% | 109% | 94.9% | 93.4% | 97.8% | 96.7% | 103% | 105% | 92.6% | 95.7% | 84.6% | 103% |
| Cc1ccc(S(=O)(=O)Cc2nc(-c3ccc(C(=O)NCc4cccnc4)cc3)oc2C)cc1 | 0.0249 µM | 0.0408 µM | 0.0372 µM | 0.0364 µM | 0.036 µM | 28.2 | 27.6 | 29.2 | 29.7 | 28.3 | 101% | 77.3% | 23.5% | 12.2% | 9.5% | 104% | 107% | 11.2% | 5.4% | 16.6% | 106% | 110% | 2.3% | 1.5% | 2.6% | 96.4% | 108% | 1.1% | -0.1% | -0.2% | 105% | 102% | 8.7% | 5.3% | 5.3% |
| COC(=O)[C@@H](N)CCCNC(=N)N[N+](=O)[O-] [L-NAME] | > 10 µM | > 10 µM | > 10 µM | > 10 µM | > 10 µM | 0 | 0 | 0 | 0 | 0 | 97.4% | 104% | 94.5% | 95.4% | 116% | 94.6% | 97.3% | 94.4% | 97.8% | 106% | 97.7% | 96.6% | 99.9% | 98.6% | 105% | 101% | 97.9% | 103% | 101% | 110% | 96% | 106% | 99.6% | 94.7% | 114% |
| Cn1cc(-c2ccc(F)c(C(F)(F)F)c2)nc1C1CCN(c2ncnc3[nH]ncc23)CC1 | > 10 µM | > 10 µM | > 10 µM | > 10 µM | > 10 µM | 0 | 0.2 | 0 | 0.7 | 0.4 | 106% | 97.8% | 106% | 91.7% | 94.7% | 97% | 96.9% | 102% | 102% | 84.5% | 98.4% | 106% | 96.7% | 95.4% | 92% | 96.9% | 94.5% | 90.3% | 90.9% | 84.6% | 95.6% | 90.2% | 96.4% | 94.1% | 82.1% |
| CCN(CC)C(=O)N[C@H]1C[C@@H]2c3cccc4[nH]cc(c34)C[C@H]2N(C)C1 [terguride] | > 10 µM | > 10 µM | > 10 µM | > 10 µM | > 10 µM | 0 | 0 | 0 | 0 | 0 | 104% | 105% | 95.9% | 92.9% | 102% | 88.6% | 93.3% | 108% | 97.2% | 99.5% | 105% | 106% | 104% | 99.8% | 97% | 96.4% | 95.3% | 94.5% | 99.1% | 94.7% | 106% | 97.4% | 95.2% | 105% | 115% |
| Brc1c(NC2=NCCN2)ccc2nccnc12 [brimonidine] | > 10 µM | > 10 µM | > 10 µM | > 10 µM | > 10 µM | 0 | 0 | 0 | 0 | 0 | 98.1% | 97.6% | 96.7% | 107% | 105% | 107% | 97.2% | 108% | 90.7% | 103% | 99% | 102% | 97.5% | 100% | 102% | 100% | 105% | 99.6% | 96.6% | 106% | 103% | 98.1% | 88.1% | 97.2% | 103% |
| CC(C)[C@H](C(=O)Nc1ccc(C(=O)NO)cc1)c1ccccc1 [AR-42] | 0.271 µM | 0.498 µM | 0.26 µM | 0.328 µM | 0.371 µM | 18 | 15.3 | 18.9 | 17.2 | 14.2 | 91.7% | 103% | 75.3% | 18.6% | 0% | 101% | 95% | 97.6% | 18% | 1.2% | 97% | 95.4% | 88.7% | 5.2% | -0.1% | 98.9% | 97.3% | 86.5% | 15.4% | 0.3% | 96.5% | 90.5% | 83% | 36% | 12% |
| NC(=O)CN1Cc2ccccc2OC1=O [caroxazone] | > 10 µM | > 10 µM | > 10 µM | > 10 µM | > 10 µM | 0 | 0 | 0 | 0 | 0 | 101% | 94.6% | 101% | 93.1% | 100% | 109% | 102% | 101% | 96% | 104% | 99.5% | 99.8% | 101% | 96.9% | 96.4% | 100% | 99% | 101% | 95.3% | 102% | 103% | 93.2% | 93.7% | 105% | 101% |
| CC(=O)Oc1ccccc1C(=O)Oc1ccccc1C(=O)O [acetylsalicylsalicylic-acid] | > 10 µM | > 10 µM | > 10 µM | > 10 µM | > 10 µM | 0 | 0 | 0 | 0 | 0 | 100% | 106% | 100% | 108% | 92.4% | 103% | 96.1% | 101% | 101% | 103% | 101% | 101% | 102% | 95.9% | 99.9% | 96.1% | 96.8% | 103% | 104% | 106% | 95.3% | 78.8% | 99.3% | 97% | 91.9% |
| COc1[nH]c2ccc(F)cc2c1C(=O)OCC1CCN(CCNS(C)(=O)=O)CC1 | > 10 µM | > 10 µM | > 10 µM | > 10 µM | > 10 µM | 0 | 0 | 0 | 0 | 0 | 98.7% | 105% | 97.2% | 101% | 94.6% | 103% | 99.3% | 96.7% | 98.2% | 98.3% | 103% | 108% | 102% | 104% | 97.3% | 104% | 94.5% | 100% | 97.2% | 98.9% | 96% | 94.3% | 92.2% | 105% | 107% |
| CCOC(=O)[C@H](CCc1ccccc1)N[C@@H](C)C(=O)N(CC(=O)O)C1Cc2ccccc2C1 [delapril] | > 10 µM | > 10 µM | > 10 µM | > 10 µM | > 10 µM | 0 | 0 | 0 | 0 | 0 | 105% | 102% | 98.3% | 96.7% | 98% | 106% | 103% | 98.2% | 111% | 95.4% | 107% | 102% | 111% | 107% | 99.7% | 100% | 93.1% | 103% | 98.6% | 98% | 98.6% | 101% | 92.3% | 90.6% | 106% |

Reference: the supplement of paper PMC13380429
